Measured values taken from patent US20250000847A1, “TREATMENT OF NEURODEGENERATIVE DISEASES WITH HDAC INHIBITORS” (CASE WESTERN RESERVE UNIVERSITY, priority 2021, published 2025).

Key:
[1] = Pharmacokinetics, brain tissue; assay type: in vivo, mouse
Method: Mice were then perfused with saline to remove blood from the brain. Brain tissue was then collected and snap frozen. Brain tissues were thawed at room temperature and homogenized in PBS. Calibration standards and study samples were extracted with 3× volume of acetonitrile containing 0.1% formic acid+200 ng/ml internal standard solution. Samples were then vortexed each for 1 minute and then transferred to an Eppendorf R5417R and centrifuged at 14000 rpm for 7 minutes. Following extraction of tissue homogenate calibrators and study samples were transferred directly to an autosampler microtiter plate for analysis. Samples were analyzed by LC-MS-MS in the positive ion electrospray ionization mode.

[2] = system: very long chain fatty acids (VLCFA); assay: Very long chain fatty acids produced by reactive astrocytes; assay type: cell-based; settings: compared to cells treated with DMSO
[3] = system: GBP2+ reactive astrocytes; assay: Primary high-throughput screen, formation of GBP2+ damaging reactive astrocytes; assay type: cell-based, mouse; settings: 2 μM, TNFα, IL-1α, C1q, 24 hours
Method: Specifically, resting astrocytes were first thawed and plated onto 384-well plates at a density of about 500 cells/mm^2. A Perkin Elmer Janus G3 Varispan Automated Workstation was then used to treat cells with candidate small-molecules from a library of 3115 bioactive small-molecules, with one type of small molecule per well, at a concentration of about 2 μM in 384-well plates, followed one hour later by exposing the pre-treated astrocytes with such reactive astrocyte driving factors as IL-1α (3 ng/mL, Sigma #I3901), C1q (400 ng/mL, MyBioSource #MBS143105), and TNFα (30 ng/mL, R&D Systems #210-TA-020). […]
The cells were then imaged using the PerkinElmer Operetta CLS High-Content Analysis System. Images were analyzed using automated PerkinElmer Columbus Image Analysis Software.
Hits were then determined as those compounds that decreased the number of GBP2^+ reactive astrocytes by greater than 80% compared to reactive astrocytes plus DMSO vehicle control wells. […]
For screening, all liquid handling was performed using a BioTek EL406 Washer Dispenser. […] Images were analyzed using automated PerkinElmer Columbus Image Analysis Software. For analysis, toxic chemicals were first removed; a chemical was considered toxic if it decreased the counted number of live cells in the well by greater than 30% compared to reactive astrocytes plus DMSO vehicle control wells. […]

[4] = system: Gbp2 and Psmb8; assay: Gene expression in cultured human astrocytes (qPCR); assay type: cell-based
Method: Human induced pluripotent stem cells (iPSCs) were cultured to differentiate into astrocytes as described by Perriot et al. (2018). In short, iPSC colonies were placed in neural induction media for 10 days until neural rosettes could be picked, dissociated, and plated in a glial expansion medium. These cells were allowed to proliferate and become a homogenous population of glial progenitor cells (GPCs) over eight passages on poly-L-ornithine and laminin-coated plates. These GPCs were then passaged onto a Matrigel-coated plate to culture in an astrocyte induction media for two weeks, which was followed by culturing for another four weeks in an astrocyte maturation medium.
Cells were lysed in TRIzol and total RNA was extracted with phenol-chloroform followed by spin columns from the RNEasy Mini Kit (74104, QIAGEN). RNA quality and quantity was determined using a NanoDrop spectrophotometer. The RNA was then reverse transcribed using the iScript cDNA synthesis kit (1708891, Bio-Rad) according to the manufacturer's instructions. […]

[5] = system: RelA/P65; assay: Nuclear RelA/P65 in reactive astrocytes; assay type: cell-based, mouse
Method: For immunocytochemistry, cells were fixed with ice-cold 4% PFA for 15 minutes at room temperature, washed three times with PBS, blocked and permeabilized with 10% donkey serum and 0.1% Triton X-100 in PBS for 1 hr, and then stained with primary overnight followed by three washes with PBS, and then 1 hr incubation with Alexaflour secondary antibodies and DAPI. Stained cells were imaged using the PerkinElmer Operetta CLS High-Content Analysis System and analyzed using automated scripts in PerkinElmer Columbus Image Analysis software. Primary antibodies used were GBP2 (ProteinTech, 11854-1-AP), vimentin (BioLegend, 919101), RelA/P65 (Cell Signaling Tech, 6956), MBP (Abeam, AB7349).

[6] = system: genes associated with damaging and beneficial reactive astrocytes; assay: Bulk RNAseq of reactive astrocytes; assay type: cell-based, mouse
From the text: Total RNA was extracted from resting and reactive astrocytes using the same procedure as described for qPCR and sent to Novogene for mRNA Sequencing.
For gene expression analysis, reads were mapped to the mm10 genome using kallisto 0.46.1 (Bray et al., Nat Biotechnol 34, 525-527, doi:10.1038/nbt.3519 (2016)). Transcripts were summarized to the gene level with tximport (Soneson et al., F1OORes 4, 1521, doi:10.12688/fl000research.7563.2 (2015). Normalized expression and differentiation gene expression was then generated using DESEQ2 (Love et al., Genome Biol 15, 550, doi:10.1186/s13059-014-0550-8 (2014)).

Question: Which results are given for `Nc1cc(F)ccc1NC(=O)/C=C/c1cnn(C/C=C/c2ccccc2)c1` [RGFP966]?
Answer: concentration in brain tissue ([1]; chronic treatment, 10 mg/kg i.p. daily): equal to the IC50; brain permeance ([1]; mice, 10 mg/kg i.p.): brain permeant; levels of toxic very long chain fatty acids (VLCFA) [2]: decreased levels; inhibition of the formation of proinflammatory toxic (reactive) astrocytes [3]: robustly inhibit; expression of genes associated with DRAs, Gbp2 and Psmb8 [4]: decreased expression; nuclear RelA/P65 [5]: decreases; expression of genes associated with beneficial reactive astrocytes (BRA) [6]: increasing expression; expression of genes associated with damaging reactive astrocytes (DRA) [6]: decreased expression
